Laboratory results: patent publication US11912701B2, “Protein kinase inhibitors for promoting liver regeneration or reducing or preventing hepatocyte death” (HEPAREGENIX GMBH, priority 2018, dated 2024)

What was measured:
Type in all cases: biochemical
MKK4 = biological target: T1, MKK4 (Homo sapiens, UniProt P45985); assay: 33PanQinase enzyme assay, MKK4; conditions: assay 'IC50'; read-out: Potency MKK4 (IC50)
T1 construct: purchased ProQinase GmbH, Freiburg, Germany (33PanQinase Assay Service)
T1 sequence (P45985 1-399): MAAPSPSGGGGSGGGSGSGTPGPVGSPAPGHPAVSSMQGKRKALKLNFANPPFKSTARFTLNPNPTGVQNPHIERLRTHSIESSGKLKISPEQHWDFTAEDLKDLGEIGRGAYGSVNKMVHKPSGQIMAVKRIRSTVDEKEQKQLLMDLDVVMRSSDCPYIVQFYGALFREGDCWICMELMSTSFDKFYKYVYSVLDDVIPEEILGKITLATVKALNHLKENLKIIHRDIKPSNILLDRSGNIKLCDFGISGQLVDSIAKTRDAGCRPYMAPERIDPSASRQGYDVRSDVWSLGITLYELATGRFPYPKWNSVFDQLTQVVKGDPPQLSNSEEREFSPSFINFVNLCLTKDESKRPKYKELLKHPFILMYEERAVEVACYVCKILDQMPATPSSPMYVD
Outline: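 Inhibition measured as 33Pi transfer to substrate after a 60-min, 30 °C reaction, acid-stopped and scintillation-counted.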

BRaf = biological target: T2, BRaf (Homo sapiens, UniProt P15056); assay: 33PanQinase enzyme assay, BRaf; conditions: ratio IC50(BRaf)/IC50(MKK4)
T2 construct: purchased ProQinase GmbH, Freiburg, Germany (33PanQinase Assay Service)
Outline: (§1)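 Off-target selectivity is the ratio IC50(off-target)/IC50(MKK4), with IC50 values from least-squares fitting and single-point data as % residual activity. Reactions of enzyme/substrate mix, ATP and compound ran 60 min at 30° C before H3PO4 stop; ^33P incorporation read on a scintillation counter.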

JNK1 = JNK1 (Homo sapiens, UniProt P45983); assay: 33PanQinase enzyme assay, JNK1; set-up: purchased ProQinase GmbH, Freiburg, Germany (33PanQinase Assay Service); conditions: ratio IC50(JNK1)/IC50(MKK4)
Outline: as §1

MKK7 = biological target: T3, MKK7 (Homo sapiens, UniProt O14733); assay: 33PanQinase enzyme assay, MKK7; set-up: purchased ProQinase GmbH, Freiburg, Germany (33PanQinase Assay Service); conditions: ratio IC50(MKK7)/IC50(MKK4)
T3 sequence (O14733 1-419): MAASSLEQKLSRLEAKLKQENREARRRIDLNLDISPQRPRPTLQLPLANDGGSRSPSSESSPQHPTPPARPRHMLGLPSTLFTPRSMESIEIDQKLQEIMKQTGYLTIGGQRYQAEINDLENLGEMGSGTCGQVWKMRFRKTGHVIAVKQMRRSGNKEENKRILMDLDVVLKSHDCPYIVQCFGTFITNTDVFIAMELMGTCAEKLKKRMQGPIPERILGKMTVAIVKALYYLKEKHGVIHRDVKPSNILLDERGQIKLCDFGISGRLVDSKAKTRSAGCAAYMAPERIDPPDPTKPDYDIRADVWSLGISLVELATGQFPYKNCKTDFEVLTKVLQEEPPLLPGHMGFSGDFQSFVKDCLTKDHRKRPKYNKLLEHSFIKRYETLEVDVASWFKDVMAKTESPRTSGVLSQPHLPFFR
Outline: as §1

Chain of JNK1 (P45983 whole entry): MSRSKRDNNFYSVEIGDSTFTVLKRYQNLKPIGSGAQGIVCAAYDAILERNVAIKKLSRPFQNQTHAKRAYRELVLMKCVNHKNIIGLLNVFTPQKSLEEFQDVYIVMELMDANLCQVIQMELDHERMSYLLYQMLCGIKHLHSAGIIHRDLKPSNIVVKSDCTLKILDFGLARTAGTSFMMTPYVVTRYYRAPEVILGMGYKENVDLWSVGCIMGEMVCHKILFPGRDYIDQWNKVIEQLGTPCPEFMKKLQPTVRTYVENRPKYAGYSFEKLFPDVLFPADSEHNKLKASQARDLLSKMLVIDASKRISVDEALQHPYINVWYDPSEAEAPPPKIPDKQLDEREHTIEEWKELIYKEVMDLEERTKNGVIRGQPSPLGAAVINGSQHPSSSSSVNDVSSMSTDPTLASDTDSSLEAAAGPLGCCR
T2 sequence (P15056 whole entry, species assumed): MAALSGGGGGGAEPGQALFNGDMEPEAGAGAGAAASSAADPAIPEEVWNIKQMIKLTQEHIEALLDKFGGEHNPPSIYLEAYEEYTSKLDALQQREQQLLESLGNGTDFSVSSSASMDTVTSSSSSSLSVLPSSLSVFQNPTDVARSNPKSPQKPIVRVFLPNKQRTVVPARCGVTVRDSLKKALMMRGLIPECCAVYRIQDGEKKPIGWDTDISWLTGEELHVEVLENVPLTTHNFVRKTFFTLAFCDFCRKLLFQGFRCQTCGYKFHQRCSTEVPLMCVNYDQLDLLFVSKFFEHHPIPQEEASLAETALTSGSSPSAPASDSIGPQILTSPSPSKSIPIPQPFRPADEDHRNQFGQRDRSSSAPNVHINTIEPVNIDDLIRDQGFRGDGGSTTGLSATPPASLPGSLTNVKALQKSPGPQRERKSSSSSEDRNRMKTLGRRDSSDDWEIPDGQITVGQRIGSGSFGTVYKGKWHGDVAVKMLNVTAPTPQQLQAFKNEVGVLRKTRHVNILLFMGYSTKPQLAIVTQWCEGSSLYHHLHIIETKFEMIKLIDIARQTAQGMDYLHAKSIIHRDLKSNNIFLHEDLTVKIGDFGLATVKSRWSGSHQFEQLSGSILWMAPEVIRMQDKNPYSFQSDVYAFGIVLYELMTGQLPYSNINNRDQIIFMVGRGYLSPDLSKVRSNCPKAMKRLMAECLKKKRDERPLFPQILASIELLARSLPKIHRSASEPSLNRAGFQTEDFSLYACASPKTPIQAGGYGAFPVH

| IC50 (MKK4) [nM] | Selectivity Braf, IC50(off-target)/IC50(MKK4) (BRaf) | Selectivity IVIKK7, IC50(off-target)/IC50(MKK4) (MKK7) | SMILES | Selectivity JNK1, IC50(off-target)/IC50(MKK4) (JNK1) |
| --- | --- | --- | --- | --- |
| < 100 | +++ (IC50(off-target)/IC50(MKK4) > 100) | +++ (IC50(off-target)/IC50(MKK4) > 100) | CCCS(=O)(=O)Nc1c(F)ccc(C(=O)c2c[nH]c3ncc(-c4cnc(C(N)=O)nc4)cc23)c1F [Example 190, 5-(3-(2,4-difluoro-3-(propylsulfonamido)benzoyl)-1H-pyrrolo[2,3-b]pyridin-5-yl)pyrimidine-2-carboxamide] | +++ (IC50(off-target)/IC50(MKK4) > 100) |
| 100 to 1000 | + (10 ≥ IC50(off-target)/IC50(MKK4) > 3) | +++ (IC50(off-target)/IC50(MKK4) > 100) | CCCS(=O)(=O)Nc1c(F)ccc(C(=O)c2c[nH]c3ncc(-c4cnc(N5CCNCC5)nc4)cc23)c1F [Example 185, N-(2,6-difluoro-3-(5-(2-(piperazin-1-yl)pyrimidin-5-yl)-1H-pyrrolo[2,3-b]pyridine-3-carbonyl)phenyl)propane-1-sulfonamide] | ++ (100 ≥ IC50(off-target)/IC50(MKK4) > 10) |
| 100 to 1000 | +++ (IC50(off-target)/IC50(MKK4) > 100) | +++ (IC50(off-target)/IC50(MKK4) > 100) | CCCS(=O)(=O)Nc1c(F)ccc(C(=O)c2c[nH]c3ncc(-c4c(C)cc(C)nc4C)cc23)c1F [Example 168, N-(2,6-difluoro-3-(5-(2,4,6-trimethylpyridin-3-yl)-1H-pyrrolo[2,3-b]pyridine-3-carbonyl)phenyl)propane-1-sulfonamide] | ++ (100 ≥ IC50(off-target)/IC50(MKK4) > 10) |
| < 100 | +++ (IC50(off-target)/IC50(MKK4) > 100) | +++ (IC50(off-target)/IC50(MKK4) > 100) | CCCS(=O)(=O)Nc1c(F)ccc(C(=O)c2c[nH]c3ncc(-c4cnc(N5CCOCC5)nc4)cc23)c1F [Example 188, N-(2,6-difluoro-3-(5-(2-morpholinopyrimidin-5-yl)-1H-pyrrolo[2,3-b]pyridine-3-carbonyl)phenyl)propane-1-sulfonamide] | +++ (IC50(off-target)/IC50(MKK4) > 100) |
| 100 to 1000 | ◯ (3 ≥ IC50(off-target)/IC50(MKK4)) | +++ (IC50(off-target)/IC50(MKK4) > 100) | CCCS(=O)(=O)Nc1ccc(F)c(C(=O)c2c[nH]c3ncc(-c4ccc5ccccc5c4)cc23)c1F [Example 99, N-(2,4-difluoro-3-(5-(naphthalen-2-yl)-1H-pyrrolo[2,3-b]pyridine-3-carbonyl)phenyl)propane-1-sulfonamide] | ◯ (3 ≥ IC50(off-target)/IC50(MKK4)) |
| < 100 | +++ (IC50(off-target)/IC50(MKK4) > 100) | +++ (IC50(off-target)/IC50(MKK4) > 100) | CCCS(=O)(=O)Nc1c(F)ccc(C(=O)c2c[nH]c3ncc(-c4cnc(CC)nc4)cc23)c1F [Example 206, N-(3-(5-(2-ethylpyrimidin-5-yl)-1H-pyrrolo[2,3-b]pyridine-3-carbonyl)-2,6-difluorophenyl)propane-1-sulfonamide] | +++ (IC50(off-target)/IC50(MKK4) > 100) |
| < 100 | +++ (IC50(off-target)/IC50(MKK4) > 100) | +++ (IC50(off-target)/IC50(MKK4) > 100) | CCCS(=O)(=O)Nc1c(F)ccc(C(=O)c2c[nH]c3ncc(-c4ccc(F)cc4Cl)cc23)c1F [Example 221, N-(3-(5-(2-chloro-4-fluorophenyl)-1H-pyrrolo[2,3-b]pyridine-3-carbonyl)-2,6-difluorophenyl)propane-1-sulfonamide] | ++ (100 ≥ IC50(off-target)/IC50(MKK4) > 10) |
| < 100 | +++ (IC50(off-target)/IC50(MKK4) > 100) | +++ (IC50(off-target)/IC50(MKK4) > 100) | CCCS(=O)(=O)Nc1c(F)ccc(C(=O)c2c[nH]c3ncc(-c4ccc(C)nc4Cl)cc23)c1F [Example 166, N-(3-(5-(2-chloro-6-methylpyridin-3-yl)-1H-pyrrolo[2,3-b]pyridine-3-carbonyl)-2,6-difluorophenyl)propane-1-sulfonamide] | +++ (IC50(off-target)/IC50(MKK4) > 100) |

| SMILES | IC50 (MKK4) [nM] | Selectivity Braf, IC50(off-target)/IC50(MKK4) (BRaf) | Selectivity IVIKK7, IC50(off-target)/IC50(MKK4) (MKK7) | Selectivity JNK1, IC50(off-target)/IC50(MKK4) (JNK1) |
| --- | --- | --- | --- | --- |
| O=C(c1cccc(NS(=O)(=O)Cc2ccccc2)c1F)c1c[nH]c2ncc(-c3cnc(C4CC4)nc3)cc12 [Example 131, N-(3-(5-(2-cyclopropylpyrimidin-5-yl)-1H-pyrrolo[2,3-b]pyridine-3-carbonyl)-2-fluorophenyl)-1-phenylmethanesulfonamide] | 100 to 1000 | ++ (100 ≥ IC50(off-target)/IC50(MKK4) > 10) | +++ (IC50(off-target)/IC50(MKK4) > 100) | ++ (100 ≥ IC50(off-target)/IC50(MKK4) > 10) |
| CCCS(=O)(=O)Nc1c(F)ccc(C(=O)c2c[nH]c3ncc(-c4cnc(N5CC(O)C5)nc4)cc23)c1F [Example 205, N-(2,6-difluoro-3-(5-(2-(3-hydroxyazetidin-1-yl)pyrimidin-5-yl)-1H-pyrrolo[2,3-b]pyridine-3-carbonyl)phenyl)propane-1-sulfonamide] | 100 to 1000 | ++ (100 ≥ IC50(off-target)/IC50(MKK4) > 10) | +++ (IC50(off-target)/IC50(MKK4) > 100) | ++ (100 ≥ IC50(off-target)/IC50(MKK4) > 10) |
| COc1ncc(-c2cnc3[nH]cc(C(=O)c4cccc(NS(=O)(=O)Cc5ccccc5)c4F)c3c2)cn1 [Example 130, N-(2-fluoro-3-(5-(2-methoxypyrimidin-5-yl)-1H-pyrrolo[2,3-b]pyridine-3-carbonyl)phenyl)-1-phenylmethanesulfonamide] | 100 to 1000 | ++ (100 ≥ IC50(off-target)/IC50(MKK4) > 10) | +++ (IC50(off-target)/IC50(MKK4) > 100) | ++ (100 ≥ IC50(off-target)/IC50(MKK4) > 10) |
| CS(=O)(=O)Nc1c(F)ccc(C(=O)c2c[nH]c3ncc(-c4ccc(Cl)cc4)cc23)c1F [Example 149, N-(3-(5-(4-chlorophenyl)-1H-pyrrolo[2,3-b]pyridine-3-carbonyl)-2,6-difluorophenyl)methanesulfonamide] | 100 to 1000 | ++ (100 ≥ IC50(off-target)/IC50(MKK4) > 10) | +++ (IC50(off-target)/IC50(MKK4) > 100) | ++ (100 ≥ IC50(off-target)/IC50(MKK4) > 10) |
| CCCS(=O)(=O)Nc1c(F)ccc(C(=O)c2c[nH]c3ncc(-c4ccccc4C(=O)O)cc23)c1F [Example 224, 2-(3-(2,4-difluoro-3-(propylsulfonamido)benzoyl)-1H-pyrrolo[2,3-b]pyridin-5-yl)benzoic acid] | 1000 to 10000 | ◯ (3 ≥ IC50(off-target)/IC50(MKK4)) | ++ (100 ≥ IC50(off-target)/IC50(MKK4) > 10) | ◯ (3 ≥ IC50(off-target)/IC50(MKK4)) |
| CCCS(=O)(=O)Nc1ccc(F)c(C(=O)c2c[nH]c3ncc(N4CC(C)OC(C)C4)cc23)c1F (stereo not drawn) [Example 138, N-(3-(5-(2,6-dimethyl-morpholino)-1H-pyrrolo[2,3-b]pyridine-3-carbonyl)-2,4-difluorophenyl)propane-1-sulfonamide] | 1000 to 10000 | ◯ (3 ≥ IC50(off-target)/IC50(MKK4)) | ++ (100 ≥ IC50(off-target)/IC50(MKK4) > 10) | ◯ (3 ≥ IC50(off-target)/IC50(MKK4)) |
| CCCS(=O)(=O)Nc1c(F)ccc(C(=O)c2c[nH]c3ncc(C4CCC4)cc23)c1F [Example 239, N-(3-(5-cyclobutyl-1H-pyrrolo[2,3-b]pyridine-3-carbonyl)-2,6-difluorophenyl)propane-1-sulfonamide] | < 100 | +++ (IC50(off-target)/IC50(MKK4) > 100) | +++ (IC50(off-target)/IC50(MKK4) > 100) | ++ (100 ≥ IC50(off-target)/IC50(MKK4) > 10) |
